In brackets after ≈: the same amount, converted by molar mass. Numbered stars: 1 amine (or outer) side, 2 acyl side, 3 side chain; on linkers, the order of the positions; unused ones are H or OH. Peptide text beside a SMILES is read from it. * marks the point of attachment. C20 diacid = O=C(O)CCCCCCCCCCCCCCCCCCC(=O)*; C18 diacid = O=C(O)CCCCCCCCCCCCCCCCC(=O)*; γGlu = O=C(O)[C@H](CCC(=O)[*:2])N[*:1]; AEEA = NCCOCCOCC(=O)O
Test: Assay (IV) determination of solubility
Assay type: physicochemical
Experimental: Assay (IV)—Determination of Solubility
The mimylin peptide was dissolved in water at ˜500 nmol/ml and mixed 1:1 with a series of buffers (100 mM glycylglycine pH 3.0, 100 mM glycylglycine pH 4.0, 100 mM glycylglycine pH 5.0, 100 mM bistrispropane pH 6.0, 100 mM bistrispropane pH 6.5, 100 mM bistrispropane pH 7.0, 100 mM bistrispropane pH 7.5, 100 mM bistrispropane pH 8.0).

Row | Structure (SMILES) | Solubility (pH 3.0) | Solubility (pH 4.0) | Solubility (pH 5.0) | Solubility (pH 6.0) | Solubility (pH 6.5) | Solubility (pH 7.0) | Solubility (pH 7.5) | Solubility (pH 8.0) | other results
1 | CC[C@H](C)[C@H](NC(=O)[C@H](CCC(=O)O)NC(=O)[C@H](Cc1cnc[nH]1)NC(=O)[C@H](CC(C)C)NC(=O)[C@H](CCC(=O)O)NC(=O)[C@H](C)NC(=O)[C@H](CO)NC(=O)[C@H](CC(C)C)NC(=O)[C@H](CCCNC(=N)N)NC(=O)CNC(=O)[C@H](CC(C)C)NC(=O)[C@H](C)NC(=O)[C@H](C)NC(=O)[C@@H](NC(=O)[C@H](CO)NC(=O)[C@H](CC(C)C)NC(=O)[C@H](CCC(=O)O)NC(=O)[C@H](CO)NC(=O)[C@H](C)NC(=O)[C@H](CCC(=O)O)NC(=O)CCCCCCCCCCCCCCCCC(=O)O)[C@@H](C)O)C(=O)N[C@@H](C)C(=O)N[C@H](C(=O)N[C@@H](CC(C)C)C(=O)N1CCC[C@H]1C(=O)N[C@@H](CCCNC(=N)N)C(=O)N[C@H](C(=O)N[C@@H](CCC(=O)O)C(=O)N[C@H](C(=O)NCC(=O)N1CCC[C@H]1C(=O)N[C@@H](CCC(=O)O)C(=O)N[C@@H](CO)C(=O)N1CCC[C@H]1C(N)=O)[C@@H](C)O)[C@@H](C)O)[C@@H](C)O [compound 12, [N-terminal(C18 diacid), 20I]mimylin] ({C18 diacid}-EASELSTAALGRLSAELHEIATLPRTETGPESP-NH2) | ≧200 μM | ≧200 μM | ≧200 μM | ≧200 μM | ≧200 μM | ≧200 μM | ≧200 μM | ≧200 μM | 
2 | CC(C)C[C@H](NC(=O)[C@H](CCCNC(=N)N)NC(=O)CNC(=O)[C@H](CC(C)C)NC(=O)[C@@H](NC(=O)[C@H](C)NC(=O)[C@@H](NC(=O)[C@@H](NC(=O)[C@H](CC(C)C)NC(=O)[C@H](CCC(=O)O)NC(=O)[C@H](CO)NC(=O)[C@H](C)NC(=O)CC[C@H](NC(=O)CCCCCCCCCCCCCCCCC(=O)O)C(=O)O)[C@@H](C)O)[C@@H](C)O)C(C)C)C(=O)N[C@@H](CCC(=O)O)C(=O)N[C@@H](C)C(=O)N[C@@H](CCC(=O)O)C(=O)N[C@@H](CC(C)C)C(=O)N[C@@H](Cc1cnc[nH]1)C(=O)N[C@@H](CCC(=O)O)C(=O)N[C@@H](CC(C)C)C(=O)N[C@H](C(=O)N[C@H](C(=O)N[C@@H](CC(C)C)C(=O)N1CCC[C@H]1C(=O)N[C@@H](CCCNC(=N)N)C(=O)N[C@H](C(=O)N[C@@H](CCC(=O)O)C(=O)N[C@H](C(=O)NCC(=O)N[C@H](C(=O)NCC(=O)N[C@H](C(=O)N1CCC[C@H]1C(N)=O)[C@@H](C)O)[C@@H](C)O)[C@@H](C)O)[C@@H](C)O)[C@@H](C)O)[C@@H](C)O [compound 106, [N-terminal(C18 diacid-gGlu), des1, 6T, 9V, 14E, 21T, 30T, 31G, 32T]mimylin] ({C18 diacid-γGlu}-ASELTTAVLGRLEAELHELTTLPRTETGTGTP-NH2) | ≧200 μM | ≧200 μM | ≧200 μM | ≧200 μM | ≧200 μM | ≧200 μM | ≧200 μM | ≧200 μM | 
3 | CC(C)C[C@H](NC(=O)[C@H](C)NC(=O)[C@H](C)NC(=O)[C@@H](NC(=O)[C@H](CO)NC(=O)[C@H](CC(C)C)NC(=O)[C@H](CCC(=O)O)NC(=O)[C@H](CO)NC(=O)[C@H](C)NC(=O)CC[C@H](NC(=O)CCCCCCCCCCCCCCCCC(=O)O)C(=O)O)[C@@H](C)O)C(=O)NCC(=O)N[C@@H](CCCNC(=N)N)C(=O)N[C@@H](CC(C)C)C(=O)N[C@@H](CO)C(=O)N[C@@H](C)C(=O)N[C@@H](CCC(=O)O)C(=O)N[C@@H](CC(C)C)C(=O)N[C@@H](Cc1cnc[nH]1)C(=O)N[C@@H](CCC(=O)O)C(=O)N[C@@H](CC(C)C)C(=O)N[C@@H](C)C(=O)N[C@H](C(=O)N[C@@H](CC(C)C)C(=O)N1CCC[C@H]1C(=O)N[C@@H](CCCNC(=N)N)C(=O)N[C@H](C(=O)N[C@@H](CCC(=O)O)C(=O)N[C@H](C(=O)NCC(=O)N[C@@H](CO)C(=O)N1CCC[C@H]1C(=O)N[C@@H](CO)C(=O)N1CCC[C@H]1C(N)=O)[C@@H](C)O)[C@@H](C)O)[C@@H](C)O [compound 35, [N-terminal(C18 diacid-gGlu), des1, 30S, 31P]mimylin] ({C18 diacid-γGlu}-ASELSTAALGRLSAELHELATLPRTETGSPSP-NH2) | ≧200 μM | ≧200 μM | ≧200 μM | ≧200 μM | ≧200 μM | ≧200 μM | ≧200 μM | ≧200 μM | 
4 | CC(C)C[C@H](NC(=O)[C@H](C)NC(=O)[C@H](C)NC(=O)[C@@H](NC(=O)[C@H](CO)NC(=O)[C@H](CC(C)C)NC(=O)[C@H](CCC(=O)O)NC(=O)[C@H](CO)NC(=O)[C@H](C)NC(=O)COCCOCCNC(=O)COCCOCCNC(=O)CC[C@H](NC(=O)CCCCCCCCCCCCCCCCCCC(=O)O)C(=O)O)[C@@H](C)O)C(=O)NCC(=O)N[C@@H](CCCNC(=N)N)C(=O)N[C@@H](CC(C)C)C(=O)N[C@@H](CO)C(=O)N[C@@H](C)C(=O)N[C@@H](CCC(=O)O)C(=O)N[C@@H](CC(C)C)C(=O)N[C@@H](Cc1cnc[nH]1)C(=O)N[C@@H](CCC(=O)O)C(=O)N[C@@H](CC(C)C)C(=O)N[C@@H](C)C(=O)N[C@H](C(=O)N[C@@H](CC(C)C)C(=O)N1CCC[C@H]1C(=O)N[C@@H](CCCNC(=N)N)C(=O)N[C@H](C(=O)N[C@@H](CCC(=O)O)C(=O)N[C@H](C(=O)NCC(=O)N[C@@H](CO)C(=O)NCC(=O)N[C@@H](CO)C(=O)N1CCC[C@H]1C(N)=O)[C@@H](C)O)[C@@H](C)O)[C@@H](C)O [compound 42, [N-terminal(C20 diacid-gGlu-2xOEG), des1, 30S, 31G]mimylin] ({C20 diacid-γGlu-AEEA-AEEA}-ASELSTAALGRLSAELHELATLPRTETGSGSP-NH2) | ≧200 μM | ≧200 μM | ≧200 μM | ≧200 μM | ≧200 μM | ≧200 μM | ≧200 μM | ≧200 μM | 
5 | CC(C)C[C@H](NC(=O)CNC(=O)[C@H](CO)NC(=O)[C@H](C)NC(=O)CC[C@H](NC(=O)CCCCCCCCCCCCCCCCCCC(=O)O)C(=O)O)C(=O)N[C@@H](CO)C(=O)N[C@H](C(=O)N[C@@H](C)C(=O)N[C@H](C(=O)N[C@@H](CC(C)C)C(=O)NCC(=O)N[C@@H](CCCNC(=N)N)C(=O)N[C@@H](CC(C)C)C(=O)N[C@@H](CO)C(=O)N[C@@H](CCC(N)=O)C(=O)N[C@@H](CCC(=O)O)C(=O)N[C@@H](CC(C)C)C(=O)N[C@@H](Cc1cnc[nH]1)C(=O)N[C@@H](CCC(=O)O)C(=O)N[C@@H](CC(C)C)C(=O)N[C@@H](CCC(N)=O)C(=O)N[C@H](C(=O)N[C@@H](Cc1ccc(O)cc1)C(=O)N1CCC[C@H]1C(=O)N[C@@H](CCCNC(=N)N)C(=O)N[C@H](C(=O)N[C@@H](CCC(=O)O)C(=O)N[C@H](C(=O)NCC(=O)N[C@@H](CO)C(=O)NCC(=O)N[C@H](C(=O)N[C@@H](Cc1ccc(O)cc1)C(N)=O)[C@@H](C)O)[C@@H](C)O)[C@@H](C)O)[C@@H](C)O)C(C)C)[C@@H](C)O [compound 118, [N-terminal(C20 diacid-gGlu), des1, 4G, 9V, 15Q, 21Q, 23Y, 30S, 31G, 32T, 33Y]mimylin] | ≧200 μM |  |  |  |  |  |  |  | solubility at 18 h (pH 4.0): 2 µM (≈ 7.75 µg/mL); solubility at 18 h (pH 5.0): 8 µM (≈ 31 µg/mL); solubility at 18 h (pH 6.0): 17 µM (≈ 65.9 µg/mL); solubility at 18 h (pH 6.5): 5 µM (≈ 19.4 µg/mL); solubility at 18 h (pH 7.0): 26 µM (≈ 101 µg/mL); solubility at 18 h (pH 7.5): 90 µM (≈ 349 µg/mL); solubility at 18 h (pH 8.0): 173 µM (≈ 671 µg/mL)
6 | CC(C)C[C@H](NC(=O)[C@H](C)NC(=O)[C@H](C)NC(=O)[C@@H](NC(=O)[C@H](CO)NC(=O)[C@H](CC(C)C)NC(=O)[C@H](CCC(=O)O)NC(=O)[C@H](CO)NC(=O)[C@H](C)NC(=O)[C@H](CCC(=O)O)NC(=O)CCCCCCCCCCCCCCCCC(=O)O)[C@@H](C)O)C(=O)NCC(=O)N[C@@H](CCCNC(=N)N)C(=O)N[C@@H](CC(C)C)C(=O)N[C@@H](CO)C(=O)N[C@@H](C)C(=O)N[C@@H](CCC(=O)O)C(=O)N[C@@H](CC(C)C)C(=O)N[C@@H](Cc1cnc[nH]1)C(=O)N[C@@H](CCC(=O)O)C(=O)N[C@@H](CC(C)C)C(=O)N[C@@H](C)C(=O)N[C@H](C(=O)N[C@@H](CC(C)C)C(=O)N1CCC[C@H]1C(=O)N[C@@H](CCCNC(=N)N)C(=O)N[C@H](C(=O)N[C@@H](CCC(=O)O)C(=O)N[C@H](C(=O)NCC(=O)N1CCC[C@H]1C(=O)N[C@@H](CCC(=O)O)C(=O)N[C@@H](Cc1cnc[nH]1)C(=O)N1CCC[C@H]1C(N)=O)[C@@H](C)O)[C@@H](C)O)[C@@H](C)O [compound 18, [N-terminal(C18 diacid), 32H]mimylin] ({C18 diacid}-EASELSTAALGRLSAELHELATLPRTETGPEHP-NH2) | ≧200 μM | ≧200 μM | ≧200 μM | ≧200 μM | ≧200 μM | ≧200 μM | ≧200 μM | ≧200 μM | 
7 | CC(C)C[C@H](NC(=O)[C@H](C)NC(=O)[C@H](C)NC(=O)[C@@H](NC(=O)[C@H](CO)NC(=O)[C@H](CC(C)C)NC(=O)[C@H](CCC(N)=O)NC(=O)[C@H](CO)NC(=O)[C@H](C)NC(=O)CC[C@H](NC(=O)CCCCCCCCCCCCCCCCC(=O)O)C(=O)O)[C@@H](C)O)C(=O)NCC(=O)N[C@@H](CCCNC(=N)N)C(=O)N[C@@H](CC(C)C)C(=O)N[C@@H](CO)C(=O)N[C@@H](C)C(=O)N[C@@H](CCC(N)=O)C(=O)N[C@@H](CC(C)C)C(=O)N[C@@H](Cc1cnc[nH]1)C(=O)N[C@@H](CCC(=O)O)C(=O)N[C@@H](CC(C)C)C(=O)N[C@@H](C)C(=O)N[C@H](C(=O)N[C@@H](CC(C)C)C(=O)N1CCC[C@H]1C(=O)N[C@@H](CCCNC(=N)N)C(=O)N[C@H](C(=O)N[C@@H](CCC(=O)O)C(=O)N[C@H](C(=O)NCC(=O)N[C@@H](CO)C(=O)NCC(=O)N[C@@H](CO)C(=O)N1CCC[C@H]1C(N)=O)[C@@H](C)O)[C@@H](C)O)[C@@H](C)O [compound 87, [N-terminal(C18 diacid-gGlu), des1, 4Q, 16Q, 30S, 31G]mimylin] ({C18 diacid-γGlu}-ASQLSTAALGRLSAQLHELATLPRTETGSGSP-NH2) |  |  |  |  | ≧200 μM |  | ≧200 μM |  | Solubility (pH 3): ≧200 μM; Solubility (pH 4): ≧200 μM; Solubility (pH 5): ≧200 μM; Solubility (pH 6): ≧200 μM; Solubility (pH 7): ≧200 μM; Solubility (pH 8): ≧200 μM

— US9593149B2, “Amylin and calcitonin receptor agonist” (Novo Nordisk A/S, priority 2014, dated 2017)
